Results published in patent US20180112258A1, “MEDICAL USES AND METHODS FOR TREATING CANCER USING MONOPOLAR SPINDLE 1 (MPS1) KINASE INHIBITORS” (THE INSTITUTE OF CANCER RESEARCH: ROYAL CANCER HOSPITAL, priority 2015, published 2018).
Substitutions are numbered along the chain they refer to. Like-named read-outs stand apart in the source and are kept apart here.

Columns and labels:
[1] = molecular target: T1, recombinant full-length MPS1 p.C604W (Homo sapiens, UniProt P33981, C604W); assay: Recombinant MPS1 kinase assay (electrophoretic mobility shift), p.C604W; assay type: biochemical; conditions: C604W, mean ± SD, quadruplicate
T1 construct: made in house; host or cells: Sf9 insect cells (baculovirus, modified pFastBac1)
T1 sequence (P33981 1-857 C604W): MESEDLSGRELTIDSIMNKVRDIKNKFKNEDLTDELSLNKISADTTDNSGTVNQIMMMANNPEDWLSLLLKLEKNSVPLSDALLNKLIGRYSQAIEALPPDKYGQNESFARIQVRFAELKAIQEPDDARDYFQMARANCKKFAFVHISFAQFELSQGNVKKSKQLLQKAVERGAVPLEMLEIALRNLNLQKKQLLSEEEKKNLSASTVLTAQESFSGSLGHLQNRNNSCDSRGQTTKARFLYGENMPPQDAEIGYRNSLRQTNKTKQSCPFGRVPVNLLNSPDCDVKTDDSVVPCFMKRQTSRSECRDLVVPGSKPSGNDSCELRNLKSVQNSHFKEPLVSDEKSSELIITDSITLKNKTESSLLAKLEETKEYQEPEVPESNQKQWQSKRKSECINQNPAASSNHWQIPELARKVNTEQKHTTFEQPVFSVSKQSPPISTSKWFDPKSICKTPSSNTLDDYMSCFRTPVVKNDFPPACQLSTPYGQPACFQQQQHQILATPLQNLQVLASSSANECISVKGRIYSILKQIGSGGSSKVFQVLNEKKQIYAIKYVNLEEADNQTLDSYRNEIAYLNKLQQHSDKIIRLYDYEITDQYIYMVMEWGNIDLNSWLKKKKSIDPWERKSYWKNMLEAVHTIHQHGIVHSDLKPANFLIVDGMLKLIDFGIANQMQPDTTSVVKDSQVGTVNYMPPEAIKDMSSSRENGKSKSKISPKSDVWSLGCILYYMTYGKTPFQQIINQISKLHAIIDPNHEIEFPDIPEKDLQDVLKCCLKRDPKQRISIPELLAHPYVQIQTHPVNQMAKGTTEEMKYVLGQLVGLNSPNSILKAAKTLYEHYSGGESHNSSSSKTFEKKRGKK
Experimental: (§1) For high ATP concentration assays, 1 mM ATP was used. An ECHO® 550 (Labcyte Inc) acoustic dispenser was used to generate duplicate 8 point dilution curves directly into 384-well low-volume polystyrene assay plates (Corning Life Sciences). The reaction was carried out for 90 min at room temperature.

[2] = molecular target: T2, recombinant full-length wild-type MPS1 (Homo sapiens, UniProt P33981); assay: Recombinant MPS1 kinase assay (electrophoretic mobility shift), WT; assay type: biochemical; conditions: mean ± SD, quadruplicate
T2 construct: For protein expression of full-length MPS1 proteins, Sf9 insect cells were grown at 27° C; made in house; host or cells: Sf9 insect cells (baculovirus, modified pFastBac1)
T2 sequence (P33981 1-857): T1 sequence (P33981 1-857 C604W) with W604C
Experimental: as §1

[3] = test system: NvR12 HCT116 cells (p.C604W); assay: Flow cytometry cell cycle profiles, NvR12; assay type: cell-based, human; conditions: NvR12, 24 hours
Experimental: Cells were fixed overnight at −20° C. in 70% ethanol, washed in PBS, then incubated in 10 μg/ml propidium iodide and 0.5% RNase (Sigma) for 30 min and then analysed using LSRII flow cytometer (BD Biosciences). To stain for mitosis, cells were incubated for 1 hour at 4° C. with anti-MPM2 antibodies (Millipore, 05-368), then 1 hour at 4° C. with FITC-conjugated secondary antibodies (Life technology).

parental HCT116 cells = assay: Flow cytometry cell cycle profiles, parental HCT116; assay type: cell-based, human; conditions: parental, 24 hours
Experimental: Cells were fixed overnight at −20° C. in 70% ethanol, washed in PBS, then incubated in 10 μg/ml propidium iodide and 0.5% RNase (Sigma) for 30 min and then analysed using LSRII flow cytometer (BD Biosciences).

[4] = ATP at Km, read-out: IC50 values at ATP Km
[5] = IC50 values at 1 mM ATP, 1 mM ATP

## Cc1ncc(-c2ccc(Nc3cc4c(cn3)cc(-c3cnn(C)c3)n4C(=O)OC(C)C)cc2)n1C [Compound 2, Isopropyl 6-(4-(1,2-dimethyl-1H-imidazol-5-yl)-2-phenylamino)-2-(1-methyl-1H-pyrazol-4-yl)-1H-pyrrolo[3,2-c]pyridine-1-carboxylate]
[1]; [4]
  IC50: 13.3 ± 2.9 nM
[1]; [5]
  IC50: 16.3 ± 4 nM
[2]; [4]
  IC50: 3.3 ± 1.1 nM
[2]; [5]
  IC50: 60 ± 20 nM
[3]
  concentration causing loss of cell cycle profiles: 100 nM
Parental HCT116 cells
  concentration causing loss of cell cycle profiles: 600 nM
